Values quoted from earlier work in patent US11896701B2, “Method for dyeing keratin material, comprising the use of an organic C1-C6 alkoxy silane and tannic acid” (Henkel AG & Co. KGaA, priority 2019, dated 2024).
Converted amounts (≈) assume the structure as drawn.

Settings: 25° C.

solubility in water (in words) | solubility in water | SMILES
readily soluble in water |  | O=C(O)C1=NN(c2ccc(S(=O)(=O)O)cc2)C(=O)C1N=Nc1ccc(S(=O)(=O)O)cc1 (stereo not shown) [Acid Yellow 23, 4,5-dihydro-5-oxo-1-(4-sulfophenyl)-4-((4-sulfophenyl)azo)-1H-pyrazole-3-carboxylic acid]
 | more than 7 g/L | O=S(=O)(O)c1ccc(N=Nc2c(O)ccc3ccccc23)cc1 [Acid Orange 7, 4-[(2-hydroxy-1-naphthyl)azo]benzenesulfonate]
 | above 40 g/L | O=[N+]([O-])c1cc([N+](=O)[O-])c2ccc(S(=O)(=O)O)cc2c1O [Acid Yellow 9, 8-hydroxy-5,7-dinitro-2-naphthalenesulfonic acid]

SMILES | solubility in water (in words) | solubility in water
Nc1cc(S(=O)(=O)O)cc2cc(S(=O)(=O)O)c(N=Nc3ccccc3)c(O)c12 [Acid Red 33, 5-amino-4-hydroxy-3-(phenylazo)-naphthalene-2,7-disulphonate] |  | 2500 µg/mL (≈ 5.9 mM)
